Measured values as given in US9006487B2, “Amine-containing lipids and uses thereof” (Massachusetts Institute of Technology, priority 2005, dated 2015).
Values joined by “and” are separate entries in the source; they are usually repeats but may differ in a detail not shown here. Equal values may be shown once.

Columns and labels:
Type in all cases: cell-based
cos-7 cells = experiment: DNA transfection: luciferase expression relative to Lipofectamine 2000; settings: for Luciferase expression as a percentage of that achieved using Lipofectamine 2000: 300 ng Luciferase DNA per well; for Luciferase expression as a percentage of that achieved using Lipofectamine 2000 / % of the luciferase activity obtained from the use of Lipofectamine 2000: luciferase assay after 48 hours; for luciferase expression (second part of table, values relative to LIPO2000): 300 ng of DNA per well; for % of the luciferase activity obtained from the use of Lipofectamine 2000: 300 ng DNA per well
How it was run: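 Lipid/DNA complexes, 300 ng luciferase DNA per well at 2.5-25 w/w lipid:DNA, were formed in sodium acetate/Optimem and added to overnight-seeded cos-7 cells. Luciferase was measured by Bright-Glo luminescence after 48 hours and quantified against an enzyme standard curve. Values are expressed as % of Lipofectamine 2000 at 2.5 w/w.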

[1] = test system: renilla and firefly luciferases; experiment: siRNA delivery: reporter-protein (renilla luciferase) knockdown relative to Lipofectamine 2000, firefly luciferase as viability control; settings: 50 ng of siRNA per well
Protocol: Reporter-protein knockdown achieved by the top transfecting lipids relative to Lipofectamine™ 2000 (where negative values indicate improved knockdown). The assay accounts for toxicity, monitoring expression of both renilla and firefly luciferases, where the latter serves as viability control. For each lipid, 50 ng of siRNA was added per well at specific lipid/RNA w/w ratios (from top to bottom: 2.5, 5, 10, 15).

[2] = DNA delivery: raw luciferase expression (relative light units) of best-transfecting lipids; settings: 300 ng of DNA per well
Protocol: Raw values for luciferase expression (relative lights units) of best-transfecting lipids at lipid/DNA (w/w) ratios listed. 300 ng of DNA was added per well.

[3] = 1st column, no head printed (2.5 w/w by the raw values)
[4] = 2nd column, no head printed (5 w/w by the raw values)
[5] = 3rd column, no head printed (10 w/w by the raw values)
[6] = 4th column, no head printed (15 w/w by the raw values)

Structure (SMILES) | luciferase expression (second part of table, values relative to LIPO2000) (cos-7 cells; lipid/DNA 2.5 w/w) | luciferase expression (second part of table, values relative to LIPO2000) (cos-7 cells; lipid/DNA 5 w/w) | luciferase expression (second part of table, values relative to LIPO2000) (cos-7 cells; lipid/DNA 10 w/w) | luciferase expression (second part of table, values relative to LIPO2000) (cos-7 cells; lipid/DNA 15 w/w) | luciferase expression, second set of columns (replicate set of data) (cos-7 cells; [3]) | luciferase expression, second set of columns (replicate set of data) (cos-7 cells; [4]) | luciferase expression, second set of columns (replicate set of data) (cos-7 cells; [5]) | luciferase expression, second set of columns (replicate set of data) (cos-7 cells; [6]) | Raw values for luciferase expression ([2]; lipid/DNA 5 w/w) | Raw values for luciferase expression ([2]; lipid/DNA 2.5 w/w) | other results
CCCCCCCCCCCCOC(=O)CCN(CCOCCO)CCC(=O)OCCCCCCCCCCCC [LD31] | 44.2 | 38.7 | 18.8 | 11.3 | – | – | – | – | – | – | Luciferase expression as a percentage of that achieved using Lipofectamine 2000 (cos-7 cells; lipid/DNA 2.5 w/w): 44.2%; Luciferase expression as a percentage of that achieved using Lipofectamine 2000 (cos-7 cells; lipid/DNA 5 w/w): 38.7%; Luciferase expression as a percentage of that achieved using Lipofectamine 2000 (cos-7 cells; lipid/DNA 10 w/w): 18.8%; Luciferase expression as a percentage of that achieved using Lipofectamine 2000 (cos-7 cells; lipid/DNA 15 w/w): 11.3%; Luciferase expression as a percentage of that achieved using Lipofectamine 2000 (cos-7 cells; lipid/DNA 20 w/w): 42.8%; luciferase expression (second part of table, values relative to LIPO2000) (cos-7 cells; lipid/DNA 20 w/w): 42.8; Luciferase expression as a percentage of that achieved using Lipofectamine 2000 (cos-7 cells; lipid/DNA 25 w/w): 174.1%; luciferase expression (second part of table, values relative to LIPO2000) (cos-7 cells; lipid/DNA 25 w/w): 174.1; Reporter-protein knockdown relative to Lipofectamine 2000 (negative values indicate improved knockdown) ([1]; lipid/RNA 2.5 w/w): 15.3558; Reporter-protein knockdown relative to Lipofectamine 2000 (negative values indicate improved knockdown) ([1]; lipid/RNA 5 w/w): −7.897; Reporter-protein knockdown relative to Lipofectamine 2000 (negative values indicate improved knockdown) ([1]; lipid/RNA 10 w/w): −15.5821; Reporter-protein knockdown relative to Lipofectamine 2000 (negative values indicate improved knockdown) ([1]; lipid/RNA 15 w/w): −16.8831
CCCCCCCCCCCCCOC(=O)CCN(CCCN(CCO)CCO)CCC(=O)OCCCCCCCCCCCCC [LE87] | – | – | – | – | – | – | – | – | – | – | % of the luciferase activity obtained from the use of Lipofectamine 2000 (cos-7 cells; 2.5 w/w lipid to DNA): 10.5%; % of the luciferase activity obtained from the use of Lipofectamine 2000 (cos-7 cells; 5 w/w lipid to DNA): 9.0%; % of the luciferase activity obtained from the use of Lipofectamine 2000 (cos-7 cells; 10 w/w lipid to DNA): 38.4%; % of the luciferase activity obtained from the use of Lipofectamine 2000 (cos-7 cells; 15 w/w lipid to DNA): 4.3%; % of the luciferase activity obtained from the use of Lipofectamine 2000 (cos-7 cells; 20 w/w lipid to DNA): 0.0%; % of the luciferase activity obtained from the use of Lipofectamine 2000 (cos-7 cells; 25 w/w lipid to DNA): 0.0%; Reporter-protein knockdown relative to Lipofectamine 2000 (negative values indicate improved knockdown) ([1]; lipid/RNA 2.5 w/w): 5.504; Reporter-protein knockdown relative to Lipofectamine 2000 (negative values indicate improved knockdown) ([1]; lipid/RNA 5 w/w): −6.923; Reporter-protein knockdown relative to Lipofectamine 2000 (negative values indicate improved knockdown) ([1]; lipid/RNA 10 w/w): −8.533; Reporter-protein knockdown relative to Lipofectamine 2000 (negative values indicate improved knockdown) ([1]; lipid/RNA 15 w/w): −15.2929
CCCCCCCCCCCCCCOC(=O)CCN(CCOCCO)CCC(=O)OCCCCCCCCCCCCCC [LF31] | 64.1 | 78.7 | 13.4 | 69.5 | – | – | – | – | – | – | Luciferase expression as a percentage of that achieved using Lipofectamine 2000 (cos-7 cells; lipid/DNA 2.5 w/w): 64.1%; Luciferase expression as a percentage of that achieved using Lipofectamine 2000 (cos-7 cells; lipid/DNA 5 w/w): 78.7%; Luciferase expression as a percentage of that achieved using Lipofectamine 2000 (cos-7 cells; lipid/DNA 10 w/w): 13.4%; Luciferase expression as a percentage of that achieved using Lipofectamine 2000 (cos-7 cells; lipid/DNA 15 w/w): 69.5%; Luciferase expression as a percentage of that achieved using Lipofectamine 2000 (cos-7 cells; lipid/DNA 20 w/w): 97.3%; luciferase expression (second part of table, values relative to LIPO2000) (cos-7 cells; lipid/DNA 20 w/w): 97.3; Luciferase expression as a percentage of that achieved using Lipofectamine 2000 (cos-7 cells; lipid/DNA 25 w/w): 266.8%; luciferase expression (second part of table, values relative to LIPO2000) (cos-7 cells; lipid/DNA 25 w/w): 266.8; Reporter-protein knockdown relative to Lipofectamine 2000 (negative values indicate improved knockdown) ([1]; lipid/RNA 2.5 w/w): 50.09; Reporter-protein knockdown relative to Lipofectamine 2000 (negative values indicate improved knockdown) ([1]; lipid/RNA 5 w/w): 11.94; Reporter-protein knockdown relative to Lipofectamine 2000 (negative values indicate improved knockdown) ([1]; lipid/RNA 10 w/w): −0.8252; Reporter-protein knockdown relative to Lipofectamine 2000 (negative values indicate improved knockdown) ([1]; lipid/RNA 15 w/w): −10.5366
CCCCCCCCCCCCCCNC(=O)CCN(CC)CCN(CC)CCC(=O)NCCCCCCCCCCCCCC [NF61] | 63.9 | 67.7 | 7.0 | 2.9 | 5.2 | 38.9 | 8.6 | 1.1 | 3689556 relative lights units and 3053999 relative lights units | – | –
CCCCCCCCCCCCCCNC(=O)CCN(CC)CCCN(CC)CCC(=O)NCCCCCCCCCCCCCC [NF64] | 5.7 | 41.9 | 0.3 | 0.1 | – | – | – | – | 2283250 relative lights units | 384317 relative lights units | –
CCCCCCCCCCCCCCNC(=O)CCN(CCC(=O)NCCCCCCCCCCCCCC)CCN(CCO)CCO [NF86] | 56.7 | 53.3 | 4.5 | 2.3 | – | – | – | – | 4087285 relative lights units | 4798383 relative lights units | –
CCCCCCCCCCCCCCNC(=O)CCN(CCCN(CCO)CCO)CCC(=O)NCCCCCCCCCCCCCC [NF87] | 46.1 | 44.8 | 0.3 | 0.0 | – | – | – | – | 3436007 relative lights units | 3904993 relative lights units | –
CCCCCCCCCCCCCCNC(=O)CCN(C)CCN(CCC(=O)NCCCCCCCCCCCCCC)CCC(=O)NCCCCCCCCCCCCCC [NF95] | 131.6 | 141.8 | 100.5 | 33.9 | 6.0 | 9.4 | 4.7 | 12.1 | 2082965 relative lights units and 3775212 relative lights units | – | Raw values for luciferase expression ([2]; lipid/DNA 10 w/w): 1906488 relative lights units; Raw values for luciferase expression ([2]; lipid/DNA 15 w/w): 918612 relative lights units
CCCCCCCCCCCCCCNC(=O)CCN(CCCN(CCC(=O)NCCCCCCCCCCCCCC)CCC(=O)NCCCCCCCCCCCCCC)CCC(=O)NCCCCCCCCCCCCCC [NF100] | 75.9 | 0.5 | 0.0 | 0.0 | – | – | – | – | 8015 relative lights units | 1061441 relative lights units | –
CCCCCCCCCCCCCCNC(=O)CCN(CCO)CCN(CCO)CCC(=O)NCCCCCCCCCCCCCC [NF103] | 183.1 | 23.6 | 0.0 | 0.0 | 66.2 | 51.3 | 0.6 | 0.0 | – | – | Raw values for luciferase expression ([2]; lipid/DNA 10 w/w): 2886271 relative lights units; Raw values for luciferase expression ([2]; lipid/DNA 15 w/w): 772518 relative lights units
CCCCCCCCCCCCCCNC(=O)CCN(CCO)CCN(CCC(=O)NCCCCCCCCCCCCCC)CCC(=O)NCCCCCCCCCCCCCC [NF109] | 205.2 | 46.2 | 1.7 | 0.0 | 74.5 | 22.5 | 3.9 | 1.6 | – | – | Raw values for luciferase expression ([2]; lipid/DNA 10 w/w): 1151621 relative lights units; Raw values for luciferase expression ([2]; lipid/DNA 15 w/w): 108854 relative lights units
CCCCCCCCCCCCCCCCNC(=O)CCN(CCO)CCN(CCO)CCC(=O)NCCCCCCCCCCCCCCCC [NP103] | 83.0 | 2.8 | 0.0 | 1.5 | 2.1 | 2.3 | 3.8 | 1.4 | 308844 relative lights units | 8798627 relative lights units | –
